Each structure is given as a SMILES string.

The term IC50 denotes the concentration that inhibits the measured activity by half. A higher IC50 goes with a need for much substance. For orientation: EC50 means the concentration needed to bring the measured effect to its halfway point.

One test has as its target T1, human DGKα (Homo sapiens, UniProt P23743).
T1 construct: purchased Carna Biosciences'; inferred from the same paragraph's 'obtained from Carna Biosciences')
Nature of the test: DGKα Biochemical Activity Assay (ADP-Glo).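 Further: recombinant enzyme converting diacylglycerol in lipid micelles with ATP, ADP formed detected by luminescence, IC50 from a four-parameter nonlinear fit, geometric mean across experiments.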 For orientation: ADP-Glo first removes unused ATP, then detects ADP through luciferase.

Test [1] relates to Jurkat NFκB-luciferase cells. Description: Jurkat NFκB-Luciferase Assay.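 Further: bioluminescence read-out normalized to DMSO basal activation and to maximum enhancement at 1 µM compound, rising signal indicating stronger T-cell activation through DGKα inhibition.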 The test is classed as cell-based. To be noted: Homo sapiens; Jurkat NFκB-luciferase cells activated with anti-CD3 antibody (OKT3), 2.5 hrs at 37° C., One-Glo Ex; geometric mean; read-out: DGK NFKb Luciferase EC50.

T1 sequence (P23743 whole entry): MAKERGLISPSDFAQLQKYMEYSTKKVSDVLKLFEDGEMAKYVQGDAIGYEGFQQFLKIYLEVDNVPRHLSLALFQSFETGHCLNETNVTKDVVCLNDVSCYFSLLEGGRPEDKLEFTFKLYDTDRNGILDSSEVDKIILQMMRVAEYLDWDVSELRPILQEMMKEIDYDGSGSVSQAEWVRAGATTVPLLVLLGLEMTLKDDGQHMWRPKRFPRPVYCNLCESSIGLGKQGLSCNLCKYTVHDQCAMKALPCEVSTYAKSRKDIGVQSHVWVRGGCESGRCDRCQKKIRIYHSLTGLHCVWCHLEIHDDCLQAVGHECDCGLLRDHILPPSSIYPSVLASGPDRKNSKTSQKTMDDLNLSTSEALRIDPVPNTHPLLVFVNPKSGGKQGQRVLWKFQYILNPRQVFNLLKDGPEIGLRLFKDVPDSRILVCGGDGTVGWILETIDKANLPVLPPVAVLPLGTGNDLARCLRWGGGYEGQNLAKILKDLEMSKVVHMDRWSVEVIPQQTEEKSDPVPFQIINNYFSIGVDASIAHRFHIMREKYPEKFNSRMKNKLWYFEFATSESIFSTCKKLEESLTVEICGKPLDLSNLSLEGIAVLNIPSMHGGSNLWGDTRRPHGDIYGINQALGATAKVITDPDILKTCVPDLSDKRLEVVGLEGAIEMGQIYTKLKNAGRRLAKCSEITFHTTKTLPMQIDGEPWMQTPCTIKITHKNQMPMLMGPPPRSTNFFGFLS
From the text for human DGKα: Alternatively, the enzymatic activity of human DGKα was monitored in a biochemical assay in the presence or absence of compounds and using micelles containing 18:1 Diacylglycerol (DAG), 16:0-18:1 PS (POPS) and Octylglucoside as substrate. DGKα activity led to conversion of DAG and ATP to Phosphatidic Acid (PA) and ADP. Levels of ADP were monitored by bioluminescence using the ADP-Glo Kinase Assay (Promega) and were indicative of DGKα activity.
Ten nanoliters of test compound dissolved in DMSO at various concentrations were dispensed into a 384-well low volume nonbinding service white plates (Corning #3824) using a Labcyte Echo instrument. Recombinant DGKα Biosciences) in assay buffer (5 μL in 50 mM MOPS [3-(N-morpholino) propanesulfonic acid], pH 7.2; 0.0025% Triton X-100; 1 mM dithiothreitol; 5 mM MgCl2, 200 μM ATP) was added to the compound-containing plate and was incubated for 15 minutes at 25° C. A substrate solution (5 μL in 1.7 mM 1,2-dioleoyl-sn-glycerol [18:1 DAG], 13.5 mM 1-palmitoyl-2-oleoyl-sn-glycero-3-phospho-L-serine [16:0-18:1 PS](POPS), 2 μM CaCl2), 100 mM Octylglucoside (OG), 1 mM DTT) (obtained from Carna Biosciences) diluted in DGK ALPHA assay buffer was then added to start the reaction. Final concentrations were 1 nM DGKα, 100 μM ATP, 1 μM calcium chloride, 0.85 mM 1,2-dioleoyl-sn-glycerol (18:1 DAG), 6.75 mM 1-palmitoyl-2-oleoyl-sn-glycero-3-phospho-L-serine (16:0-18:1 PS) (POPS), 1 μM CaCl2), 50 mM Octylglucoside (OG) and 5 mM MgCl2. The reaction mixture was incubated at 25° C. for 1 hour. ADP-Glo Reagent (10 μL, 10 mM Mg added) provided by the kit was added to each well and incubated at 25° C. for 40 minutes. Then, 20 μL of Kinase Detection Reagent was added and incubated at 25° C. for 40 minutes. Luciferase activity of each well was measured via luminescence on an Envision plate reader (PerkinElmer).
Least squares curve fittings were performed using a four-parameter variable slope nonlinear regression model. […] IC50 values from multiple experiments were averaged by geometric mean and the standard deviation was calculated.

On to `CC1(C#Cc2cccc(N(CC(F)F)c3nc(=O)[nH]c4cccc(F)c34)c2F)CC1` [Example 61, 4-[N-(2,2-difluoroethyl)-2-fluoro-3-[2-(1-methylcyclopropyl)ethynyl]anilino]-5-fluoro-1H-quinazolin-2-one], for which, at human DGKα, the IC50 is 48.2 nM. In addition, the EC50 in test [1] is 1.7 nM.
On human DGKα, `CCn1c(=O)nc(N(CC(F)F)c2cc(F)cc(C#CC(C)(C)O)c2)c2c(F)cccc21` [Example 37, 4-[N-(2,2-difluoroethyl)-3-fluoro-5-(3-hydroxy-3-methyl-but-1-ynyl)anilino]-1-ethyl-5-fluoro-quinazolin-2-one] gave an IC50 of 54.3 nM. In addition, in test [1], the EC50 amounted to 39.6 nM.
In the same order, the values of `CC(C)(C#Cc1nccc2c1CCCN2c1nc(=O)[nH]c2cccc(F)c12)C(F)(F)F` [Example 131, 5-fluoro-4-[5-(4,4,4-trifluoro-3,3-dimethyl-but-1-ynyl)-3,4-dihydro-2H-1,6-naphthyridin-1-yl]-1H-quinazolin-2-one] are 43.7 nM and 11.1 nM.
On to `O=c1nc(N(CC(F)(F)F)c2cccc(C#CC3(C(F)(F)F)CC3)c2)c2ccc(Cl)cc2[nH]1` [Example 24, 7-chloro-4-[N-(2,2,2-trifluoroethyl)-3-[2-[1-(trifluoromethyl)cyclopropyl]ethynyl]anilino]-1H-quinazolin-2-one], for which inhibition on human DGKα was half-maximal at 176 nM (IC50). In addition, the EC50 in test [1] was found to be 2.38 nM.
Consider `CC(C)(O)C#Cc1cc(F)cc(N(CC(F)F)c2nc(=O)[nH]c3cccc(F)c23)c1` [Example 34, 4-[N-(2,2-difluoroethyl)-3-fluoro-5-(3-hydroxy-3-methyl-but-1-ynyl)anilino]-5-fluoro-1H-quinazolin-2-one], for which half-maximal inhibition at human DGKα (IC50) was put at 32.8 nM. For the same molecule, the EC50 in test [1] came to 13.4 nM.
For `O=c1nc(N(CC(F)F)c2ccnc(C#CC3(C(F)(F)F)CC3)c2F)c2c(F)cccc2[nH]1` [Example 118, 4-[2,2-difluoroethyl-[3-fluoro-2-[2-[1-(trifluoromethyl)cyclopropyl]ethynyl]-4-pyridyl]amino]-5-fluoro-1H-quinazolin-2-one] the same measures were 25.7 nM and 3.73 nM.
For `[2H]C([2H])([2H])n1c(=O)nc(N2CCOCc3c(Br)cccc32)c2c(F)cccc21` [Example 99, 4-(6-bromo-2,3-dihydrobenzo[e][1,4]oxazepin-1(5H)-yl)-5-fluoro-1-(methyl-d3)quinazolin-2(1H)-one], the IC50 on human DGKα was 31.2 nM. Besides, in test [1], the EC50 worked out at 8.22 nM.
For `[2H]C([2H])([2H])n1c(=O)nc(N2CCOCc3c(C#CC4(C(F)(F)F)CCN(C)C4)cccc32)c2c(F)cccc21` (stereo not drawn) [Example 170, 5-fluoro-4-[6-[2-[1-methyl-3-(trifluoromethyl)pyrrolidin-3-yl]ethynyl]-3,5-dihydro-2H-4,1-benzoxazepin-1-yl]-1-(trideuteriomethyl)quinazolin-2-one] the same measures were 25.7 nM and 3.75 nM.
For `CC(F)(F)C1(C#Cc2cncc3c2CCCN3c2nc(=O)[nH]c3cccc(F)c23)CC1` [Example 73, 4-(5-((1-(1,1-difluoroethyl)cyclopropyl)ethynyl)-3,4-dihydro-1,7-naphthyridin-1(2H)-yl)-5-fluoroquinazolin-2(1H)-one] the same measures were 18.1 nM and 1.89 nM.
For `CN(c1cccc(-c2ccc(C3CC3)cc2)c1)c1nc(=O)[nH]c2cc(Cl)ccc12` [Example 1, 7-chloro-4-[3-(4-cyclopropylphenyl)-N-methyl-anilino]-1H-quinazolin-2-one] the same measures were 166 nM and 1.36 nM.
At human DGKα, `CC(C)(O)C#Cc1cccc2c1CCCN2c1nc(=O)[nH]c2cccc(Cl)c12` [Example 127, 5-chloro-4-[5-(3-hydroxy-3-methyl-but-1-ynyl)-3,4-dihydro-2H-quinolin-1-yl]-1H-quinazolin-2-one] had a 50% inhibitory concentration (IC50) of 8.66 nM. For the same molecule, the EC50 in test [1] is 3.92 nM.
For `CC(C)(C#Cc1nccc(N(CC(F)F)c2nc(=O)[nH]c3cccc(F)c23)c1F)C(F)F` [Example 121, 4-[[2-(4,4-difluoro-3,3-dimethyl-but-1-ynyl)-3-fluoro-4-pyridyl]-(2,2-difluoroethyl)amino]-5-fluoro-1H-quinazolin-2-one] the same measures were 20.7 nM and 8.44 nM.
On human DGKα, `CC(C)(C#N)C#Cc1cccc2c1COCCN2c1nc(=O)[nH]c2cccc(F)c12` [Example 110, 4-(1-(5-fluoro-2-oxo-1,2-dihydroquinazolin-4-yl)-1,2,3,5-tetrahydrobenzo[e][1,4]oxazepin-6-yl)-2,2-dimethylbut-3-ynenitrile] displayed an IC50 of 6.52 nM. Also, the concentration giving a half-maximal response (EC50) in test [1] came to 2.82 nM.
In turn, `[2H]C([2H])([2H])n1c(=O)nc(N2CCCCc3c(C#CC(C)(C)O)cccc32)c2c(F)cccc21` [Example 85, 5-fluoro-4-[6-(3-hydroxy-3-methyl-but-1-ynyl)-2,3,4,5-tetrahydro-1-benzazepin-1-yl]-1-(trideuteriomethyl)quinazolin-2-one] yielded an IC50 against human DGKα of 3.31 nM. In addition, the EC50 in test [1] was 4.08 nM.
The molecule `COC(C)(C)C#Cc1cccc2c1CCCN2c1nc(=O)[nH]c2cccc(F)c12` [Example 52, 5-fluoro-4-[5-(3-methoxy-3-methyl-but-1-ynyl)-3,4-dihydro-2H-quinolin-1-yl]-1H-quinazolin-2-one] returned an IC50 against human DGKα of 12.9 nM. In addition, in test [1], the EC50 was found to be 0.197 nM.
For `[2H]C([2H])([2H])n1c(=O)nc(N(CC(F)F)c2ccnc(C#CC(C)(C)C(F)F)c2F)c2c(F)cccc21` [Example 123, 4-[[2-(4,4-difluoro-3,3-dimethyl-but-1-ynyl)-3-fluoro-4-pyridyl]-(2,2-difluoroethyl)amino]-5-fluoro-1-(trideuteriomethyl)quinazolin-2-one] the same measures were 6.41 nM and 2.39 nM.
As for `[2H]C([2H])([2H])n1c(=O)nc(N2CCOCc3c(C#CC(C)(C)O)cccc32)c2c(F)cccc21` [Example 94, 5-fluoro-4-[6-(3-hydroxy-3-methyl-but-1-ynyl)-3,5-dihydro-2H-4,1-benzoxazepin-1-yl]-1-(trideuteriomethyl)quinazolin-2-one], on human DGKα, inhibition was half-maximal at 7.77 nM (IC50). Besides, in test [1], the EC50 came out at 16.1 nM.
As to `CC(C)(C#N)C#Cc1cccc2c1CCCCN2c1nc(=O)[nH]c2cccc(F)c12` [Example 143, 4-[1-(5-fluoro-2-oxo-1H-quinazolin-4-yl)-2,3,4,5-tetrahydro-1-benzazepin-6-yl]-2,2-dimethyl-but-3-ynenitrile], the concentration for half-maximal inhibition (IC50) against human DGKα was determined as 18.4 nM. In addition, the EC50 in test [1] stood at 1.75 nM.
`CC1(C#Cc2cncc3c2CCCCN3c2nc(=O)[nH]c3ccc(F)cc23)CC1` [Example 164, 6-fluoro-4-(6-((1-methylcyclopropyl)ethynyl)-2,3,4,5-tetrahydro-1H-pyrido[3,4-b]azepin-1-yl)quinazolin-2(1H)-one] yielded an IC50 against human DGKα of 5.58 nM. In addition, the EC50 in test [1] stood at 0.693 nM.
In the same order, the values of `CC(C)(O)C#Cc1cccc2c1COCCN2c1nc(=O)[nH]c2cccc(F)c12` [Example 87, 5-fluoro-4-[6-(3-hydroxy-3-methyl-but-1-ynyl)-3,5-dihydro-2H-4,1-benzoxazepin-1-yl]-1H-quinazolin-2-one] are 9.58 nM and 30.9 nM.
In the same order, the values of `O=c1nc(N(CC(F)F)c2cc(F)cc(-c3cnc(C4CC4)cn3)c2)c2c(F)c(F)ccc2[nH]1` [Example 39, 4-[3-(5-cyclopropylpyrazin-2-yl)-N-(2,2-difluoroethyl)-5-fluoro-anilino]-5,6-difluoro-1H-quinazolin-2-one] are 13.4 nM and 0.705 nM.
With `CCC(C)(O)C#Cc1cccc2c1CCCN2c1nc(=O)[nH]c2cccc(F)c12` (stereo not drawn) [Example 56, 5-fluoro-4-[5-(3-hydroxy-3-methyl-pent-1-ynyl)-3,4-dihydro-2H-quinolin-1-yl]-1H-quinazolin-2-one], at human DGKα, half-maximal inhibition (IC50) required 31.9 nM. Besides, in test [1], the EC50 worked out at 5.16 nM.
On human DGKα, `CC(C)(C#Cc1cccc(N(CC(F)F)c2nc(=O)[nH]c3cccc(F)c23)c1F)C(F)F` [Example 63, 4-[3-(4,4-difluoro-3,3-dimethyl-but-1-ynyl)-N-(2,2-difluoroethyl)-2-fluoro-anilino]-5-fluoro-1H-quinazolin-2-one] had an IC50 of 282 nM. In addition, in test [1], the 50% effective concentration (EC50) was determined as 1.51 nM.
For `[2H]C([2H])([2H])n1c(=O)nc(N(CC(F)F)c2cc(F)cc(C#CC3(C)CCCO3)c2)c2c(F)c(F)ccc21` (stereo not drawn) [Example 66, 4-[N-(2,2-difluoroethyl)-3-fluoro-5-[2-(2-methyltetrahydrofuran-2-yl)ethynyl]anilino]-5,6-difluoro-1-(trideuteriomethyl)quinazolin-2-one] the same measures were 3.27 nM and 2.85 nM.
For `[2H]C([2H])([2H])n1c(=O)nc(N2CCOCc3c(C#CC4(C(F)(F)F)CCN(C5COC5)C4)cccc32)c2c(F)cccc21` (stereo not drawn) [Example 171, 5-fluoro-4-[6-[2-[1-(oxetan-3-yl)-3-(trifluoromethyl)pyrrolidin-3-yl]ethynyl]-3,5-dihydro-2H-4,1-benzoxazepin-1-yl]-1-(trideuteriomethyl)quinazolin-2-one] the same measures were 11.4 nM and 4.99 nM.
Consider `O=c1nc(N(CC(F)F)c2cccc(C#CC3(C(F)(F)F)CC3)c2F)c2c(F)cccc2[nH]1` [Example 58, 4-[N-(2,2-difluoroethyl)-2-fluoro-3-[2-[1-(trifluoromethyl)cyclopropyl]ethynyl]anilino]-5-fluoro-1H-quinazolin-2-one], for which the IC50 on human DGKα was determined as 72.2 nM. Moreover, in test [1], the EC50 is 0.285 nM.
On to `CN(c1cncc(C#CC2(C(F)(F)F)CC2)n1)c1nc(=O)n(C)c2cc(Cl)ccc12` [Example 12, 7-chloro-1-methyl-4-[methyl-[6-[2-[1-(trifluoromethyl)cyclopropyl]ethynyl]pyrazin-2-yl]amino]quinazolin-2-one], for which the concentration for half-maximal inhibition (IC50) against human DGKα amounted to 2.91 nM. Also, the EC50 in test [1] amounted to 1.04 nM.

The values above are taken from patent US11932634B2 (Gilead Sciences, Inc., priority 2021, dated 2024).
